{"source": "patent US8173684B2", "about": "“Pyridone derivatives as p38α MAPK inhibitors” (Astellas Pharma Inc., priority 2007, dated 2012)", "test_system": "TNF-α production in THP-1 cells", "experiment": "Test 1: Inhibition of TNF-α production in THP-1 cells", "assay_type": "cell-based", "conditions": "Homo sapiens; 100 nM test compound; LPS (10 μg/mL) stimulated THP-1 cells, 20 hr; TNF-α in supernatant vs 0.1% DMSO control", "protocol": "Test 1: Inhibition of TNF-α Production in THP-1 Cells\nTHP-1 cells, a human monocytic cell line, were maintained in RPMI 1640 (Sigma R8758) supplemented with penicillin (50 U/mL), streptomycin (50 μg/mL) and 10% fetal bovine serum (Moregate BioTech.) at 37° C., 5% CO2 in a humidified incubator. Initial stock solutions of test compounds were made in DMSO. All cells, reagents and test compounds were diluted into culture media. THP-1 cells (1×10^5 cells/well final) and lipopolysaccharide (LPS; 10 μg/mL final; Sigma L-4005, from E. coli serotype 0.55:B5) were added to 96 well polypropylene culture plates (Sumilon, MS-8196F5; sterile) containing test compound or 0.1% DMSO vehicle. The cell mixture was incubated for 20 hr in a humidified incubator at 37° C., 5% CO2. The culture supernatants were harvested and TNF-α levels from LPS stimulated cells in the presence of 100 nM test compound was calculated compared with control cells stimulated in the presence of 0.1% DMSO.", "data": [{"compound": "O=C(Nc1cc(C(=O)NC2CC2)ccc1Cl)c1ccc(=O)n(-c2c(Cl)cccc2Cl)c1", "note": "[Example 1, N-{2-chloro-5-[(cyclopropylamino)carbonyl]phenyl}-1-(2,6-dichlorophenyl)-6-oxo-1,6-dihydro-3-pyridinecarboxamide]", "values": [{"measurement": "inhibition at 0.1 µM", "value": 77, "unit": "%"}]}, {"compound": "CONC(=O)c1ccc(Cl)c(NC(=O)c2ccc(=O)n(-c3c(Cl)cccc3Cl)c2)c1", "note": "[Example 2, N-{2-Chloro-5-[(methoxyamino)carbonyl]phenyl}-1-(2,6-dichlorophenyl)-6-oxo-1,6-dihydro-3-pyridinecarboxamide]", "values": [{"measurement": "inhibition at 0.1 µM", "value": 84, "unit": "%"}]}, {"compound": "O=C(Nc1ccon1)c1ccc(Cl)c(NC(=O)c2ccc(=O)n(-c3c(Cl)cccc3Cl)c2)c1", "note": "[Example 3, N-{2-Chloro-5-[(isoxazol-3-ylamino)carbonyl]phenyl}-1-(2,6-dichlorophenyl)-6-oxo-1,6-dihydro-3-pyridinecarboxamide]", "values": [{"measurement": "inhibition at 0.1 µM", "value": 94, "unit": "%"}]}, {"compound": "Cn1ccc(NC(=O)c2ccc(Cl)c(NC(=O)c3ccc(=O)n(-c4c(Cl)cccc4Cl)c3)c2)n1", "note": "[Example 5, N-{2-Chloro-5-[(1-methyl-1H-pyrazol-3-ylamino)carbonyl]phenyl}-1-(2,6-dichlorophenyl)-6-oxo-1,6-dihydro-3-pyridinecarboxamide]", "values": [{"measurement": "inhibition at 0.1 µM", "value": 75, "unit": "%"}]}, {"compound": "Cn1nccc1NC(=O)c1ccc(Cl)c(NC(=O)c2ccc(=O)n(-c3c(Cl)cccc3Cl)c2)c1", "note": "[Example 6, N-{2-Chloro-5-[(1-methyl-1H-pyrazol-5-ylamino)carbonyl]phenyl}-1-(2,6-dichlorophenyl)-6-oxo-1,6-dihydro-3-pyridinecarboxamide]", "values": [{"measurement": "inhibition at 0.1 µM", "value": 82, "unit": "%"}]}, {"compound": "O=C(Nc1cc(C(=O)NC2CC2)ccc1Br)c1ccc(=O)n(-c2c(F)cccc2F)c1", "note": "[Example 15, N-{2-Bromo-5-[(cyclopropylamino)carbonyl]phenyl}-1-(2,6-difluorophenyl)-6-oxo-1,6-dihydro-3-pyridinecarboxamide]", "values": [{"measurement": "inhibition at 0.1 µM", "value": 69, "unit": "%"}]}, {"compound": "O=C(Nc1cc(C(=O)NC2CC2)ccc1Cl)c1ccc(=O)n(-c2c(F)cccc2Cl)c1", "note": "[Example 16, N-{2-Chloro-5-[(cyclopropylamino)carbonyl]phenyl}-1-(2-chloro-6-fluorophenyl)-6-oxo-1,6-dihydro-3-pyridinecarboxamide]", "values": [{"measurement": "inhibition at 0.1 µM", "value": 72, "unit": "%"}]}, {"compound": "O=C(Nc1cc(C(=O)NC2CC2)ccc1Cl)c1ccc(=O)n(-c2cccc(F)c2F)c1", "note": "[Example 17, N-{2-Chloro-5-[(cyclopropylamino)carbonyl]phenyl}-1-(2,3-difluorophenyl)-6-oxo-1,6-dihydro-3-pyridinecarboxamide]", "values": [{"measurement": "inhibition at 0.1 µM", "value": 75, "unit": "%"}]}, {"compound": "Cc1ccc(C(=O)NC2CC2)cc1NC(=O)c1ccc(=O)n(-c2c(Cl)cccc2Cl)c1", "note": "[Example 18, N-{5-[(cyclopropylamino)carbonyl]-2-methylphenyl}-1-(2,6-dichlorophenyl)-6-oxo-1,6-dihydro-3-pyridinecarboxamide]", "values": [{"measurement": "inhibition at 0.1 µM", "value": 78, "unit": "%"}]}, {"compound": "Cc1ccc(C(=O)NC2CC2)cc1NC(=O)c1ccc(=O)n(C(C)(C)C)c1", "note": "[Example 20, N-{5-[(cyclopropylamino)carbonyl]-2-methylphenyl}-1-tert-butyl-6-oxo-1,6-dihydro-3-pyridinecarboxamide]", "values": [{"measurement": "inhibition at 0.1 µM", "value": 85, "unit": "%"}]}, {"compound": "Cc1ccc(C(=O)NC2CC2)cc1NC(=O)c1ccc(=O)n(-c2c(F)cccc2F)c1", "note": "[Example 22, N-{5-[(Cyclopropylamino)carbonyl]-2-methylphenyl}-1-(2,6-difluorophenyl)-6-oxo-1,6-dihydro-3-pyridinecarboxamide]", "values": [{"measurement": "inhibition at 0.1 µM", "value": 97, "unit": "%"}]}, {"compound": "Cc1ccc(C(=O)NC2CC2)cc1NC(=O)c1ccc(=O)n(C(C)c2ccccc2)c1", "note": "(centres unmarked) [Example 24, N-{5-[(Cyclopropylamino)carbonyl]-2-methylphenyl}-1-(1-phenylethyl)-6-oxo-1,6-dihydro-3-pyridinecarboxamide]", "values": [{"measurement": "inhibition at 0.1 µM", "value": 83, "unit": "%"}]}, {"compound": "Cc1ccc(NC(=O)C2CC2)cc1NC(=O)c1ccc(=O)n(-c2c(Cl)cccc2Cl)c1", "note": "[Example 25, N-{5-[(cyclopropylcarbonyl)amino]-2-methylphenyl}-1-(2,6-dichlorophenyl)-6-oxo-1,6-dihydro-3-pyridinecarboxamide]", "values": [{"measurement": "inhibition at 0.1 µM", "value": 70, "unit": "%"}]}, {"compound": "Cc1ccc(-n2nc(C(C)(C)C)cc2NC(=O)Nc2ccc(C)c(NC(=O)c3ccc(=O)n(-c4c(Cl)cccc4Cl)c3)c2)cc1", "note": "[Example 26, N-[5-[({[3-tert-butyl-1-(4-methylphenyl)-1H-pyrazol-5-yl]amino]carbonyl)amino]-2-methylphenyl}-1-(2,6-dichlorophenyl)-6-oxo-1,6-dihydro-3-pyridinecarboxamide]", "values": [{"measurement": "inhibition at 0.1 µM", "value": 68, "unit": "%"}]}]}
